In ChEMBL document CHEMBL4373717, “Coumarin-containing hybrids and their anticancer activities” (Eur J Med Chem, 2019):
Converted amounts (≈) assume the structure as drawn.

Experiments:
MDA-MB-231 [1] = experiment: Cytotoxicity against human MDA-MB-231 cells assessed as reduction in cell viability; assay type: functional, cell-based
Ishikawa = experiment: Cytotoxicity against human Ishikawa cells assessed as reduction in cell viability; assay type: functional, cell-based
MCF7 [2] = experiment: Cytotoxicity against human MCF7 cells assessed as reduction in cell viability; assay type: functional, cell-based
MCF7 [3] = experiment: Potency index, ratio of methotrexate IC50 to compound IC50 for cytotoxicity against human MCF7 cells assessed as reduction in cell viability; assay type: functional
MCF7 [4] = experiment: Cytotoxicity against human MCF7 cells assessed as reduction in cell viability by MTT assay; assay type: functional, cell-based; details: for IC50: Homo sapiens, MCF7
[5] = Cytotoxicity against BHK cells assessed as reduction in cell viability by MTT assay; details: Cricetinae
MCF7 [6] = experiment: Growth inhibition of human MCF7 cells; assay type: functional
NCI-H460 [7] = experiment: Potency index, ratio of doxorubicin GI50 to compound GI50 for growth inhibition of human NCI-H460 cells; assay type: functional
SF-268 [8] = experiment: Potency index, ratio of doxorubicin GI50 to compound GI50 for growth inhibition of human SF268 cells; assay type: functional
NCI-H460 [9] = experiment: Growth inhibition of human NCI-H460 cells; assay type: functional
SF-268 [10] = experiment: Growth inhibition of human SF268 cells; assay type: functional
MCF7 [11] = experiment: Potency index, ratio of doxorubicin GI50 to compound GI50 for growth inhibition of human MCF7 cells; assay type: functional
SNB-75 = experiment: Anticancer activity against human SNB75 cells; assay type: functional
OVCAR-4 = experiment: Anticancer activity against human OVCAR4 cells; assay type: functional
MDA-MB-231 [12] = experiment: Cytotoxicity against human MDA-MB-231 cells assessed as reduction in cell viability after 24 hrs by MTT assay; assay type: functional, cell-based
MDA-MB-231 [13] = experiment: Potency index, ratio of doxorubicin IC50 to compound IC50 for cytotoxicity against human MDA-MB-231 cells in hypoxic condition; assay type: functional
MDA-MB-231 [14] = experiment: Potency index, ratio of doxorubicin IC50 to compound IC50 for cytotoxicity against human MDA-MB-231 cells in normoxic condition; assay type: functional
MDA-MB-231 [15] = experiment: Potency index, ratio of cisplatin IC50 to compound IC50 for cytotoxicity against human MDA-MB-231 cells in hypoxic condition; assay type: functional
MDA-MB-231 [16] = experiment: Potency index, ratio of cisplatin IC50 to compound IC50 for cytotoxicity against human MDA-MB-231 cells in normoxic condition; assay type: functional
HepG2 [17] = experiment: Potency index, ratio of doxorubicin IC50 to compound IC50 for anticancer activity against human HepG2 cells by MTT assay; assay type: functional
HepG2 [18] = experiment: Anticancer activity against human HepG2 cells by MTT assay; assay type: functional, cell-based
A549 [19] = experiment: Anticancer activity against human A549 cells by MTT assay; assay type: functional, cell-based
MDA-MB-231 [20] = experiment: Anticancer activity against human MDA-MB-231 cells by MTT assay; assay type: functional, cell-based
HeLa [21] = experiment: Anticancer activity against human HeLa cells by MTT assay; assay type: functional, cell-based
K562 [22] = experiment: Anticancer activity against human K562 cells by MTT assay; assay type: functional, cell-based
A549 [23] = experiment: Potency index, ratio of doxorubicin IC50 to compound IC50 for anticancer activity against human A549 cells; assay type: functional
MDA-MB-231 [24] = experiment: Potency index, ratio of doxorubicin IC50 to compound IC50 for anticancer activity against human MDA-MB-231 cells; assay type: functional
HeLa [25] = experiment: Potency index, ratio of doxorubicin IC50 to compound IC50 for anticancer activity against human HeLa cells; assay type: functional
K562 [26] = experiment: Potency index, ratio of doxorubicin IC50 to compound IC50 for anticancer activity against human K562 cells; assay type: functional
A549 [27] = experiment: Cytotoxicity against human A549 cells assessed as reduction in cell viability after 24 hrs by MTT assay; assay type: functional, cell-based; details: A549, 24 h
L02 = experiment: Cytotoxicity against human L02 cells assessed as reduction in cell viability after 24 hrs by MTT assay; assay type: cell-based; details: L02, 24 h
HEK-293T = experiment: Cytotoxicity against HEK293T cells assessed as reduction in cell viability after 24 hrs by MTT assay; assay type: cell-based; details: Homo sapiens
HeLa [28] = experiment: Cytotoxicity against human HeLa cells assessed as reduction in cell viability after 24 hrs by MTT assay; assay type: functional, cell-based
MCF7 [29] = experiment: Cytotoxicity against human MCF7 cells assessed as reduction in cell viability after 24 hrs by MTT assay; assay type: functional, cell-based; details: MCF7, 24 h
[30] = Toxicity in mouse assessed as mouse survival (reference value: 14.5 days); details: in vivo, 348 h
HepG2 [31] = experiment: Cytotoxicity against human HepG2 cells assessed as reduction in cell viability by MTT assay; assay type: functional, cell-based
PANC-1 = experiment: Cytotoxicity against human PANC1 cells assessed as reduction in cell viability by MTT assay; assay type: functional, cell-based
A549 [32] = experiment: Cytotoxicity against human A549 cells assessed as reduction in cell viability by MTT assay; assay type: functional, cell-based

COC(=O)c1cc2cc(-c3nc4cc(C)ccn4c3NC(C)(C)C)cc(C(C)C)c2oc1=O
IC50 (MDA-MB-231 [1]): 14.1 to 42.6 µM | IC50 (Ishikawa): 14.1 to 42.6 µM | IC50 (MCF7 [2]): 14.1 to 42.6 µM

CCN(C)S(=O)(=O)c1ccc(/C(C)=N/NC(=O)c2cc(=O)oc3ccccc23)cc1
Ratio IC50 (MCF7 [3]): 10.7 | IC50 (MCF7 [4]): 2.53 µM

CN(Cc1cnc2nc(N)nc(N)c2n1)c1ccc(C(=O)N[C@@H](CCC(=O)O)C(=O)O)cc1 [METHOTREXATE]
IC50 [5]: 150 µM | IC50 (MCF7 [4]): 27.1 µM

O=c1oc2ccccc2cc1-c1nc2ccccc2n1C(=S)Nc1ccccc1
GI50 (MCF7 [6]): 0.05 to 0.08 µM | RatioGI50 (NCI-H460 [7]): 1.5 - 2 | RatioGI50 (SF-268 [8]): 1.5 - 2 | GI50 (NCI-H460 [9]): 0.05 to 0.08 µM | GI50 (SF-268 [10]): 0.05 to 0.08 µM | RatioGI50 (MCF7 [11]): 1.5 - 2

Nc1ccc2c(-c3nc4ccc(Br)c(O)c4s3)cc(=O)oc2c1
GI50 (SNB-75): 0.24 µM | GI50 (OVCAR-4): 0.33 µM

COc1ccc(NC(=O)c2ccc(-n3cc(COc4cc(=O)oc5ccccc45)nn3)cc2)cc1OC
IC50 (MDA-MB-231 [12]; mda-mb-231): 0.03 to 91.6 µM | Ratio IC50 (MDA-MB-231 [13]): 20 - 156 | Ratio IC50 (MDA-MB-231 [14]): 20 - 156 | Ratio IC50 (MDA-MB-231 [15]): 20 - 156 | Ratio IC50 (MDA-MB-231 [16]): 20 - 156

O=c1ccc2ccc(OCCn3cc(COc4ccc5ccc(=O)oc5c4)nn3)cc2o1
Ratio IC50 (HepG2 [17]): 2.1 | IC50 (HepG2 [18]): 0.383 µM

COc1ccc(-n2nc(C)n(-n3c(-c4cc5ccccc5oc4=O)cs/c3=N\c3ccc(Cl)cc3)c2=O)cc1
IC50 (A549 [19]): 0.16 to 0.31 µg/mL (≈ 0.287 to 0.556 µM) | IC50 (MDA-MB-231 [20]): 0.16 to 0.31 µg/mL (≈ 0.287 to 0.556 µM) | IC50 (HeLa [21]): 0.16 to 0.31 µg/mL (≈ 0.287 to 0.556 µM) | IC50 (K562 [22]): 0.16 to 0.31 µg/mL (≈ 0.287 to 0.556 µM) | Ratio IC50 (A549 [23]): 1.9 - 3.3 | Ratio IC50 (MDA-MB-231 [24]): 1.9 - 3.3 | Ratio IC50 (HeLa [25]): 1.9 - 3.3 | Ratio IC50 (K562 [26]): 1.9 - 3.3

CC(C)=CC[C@@H](O)C1=CC(=O)c2c(O)ccc(O)c2C1=O [SHIKONIN]
IC50 (MDA-MB-231 [12]; Homo sapiens, MDA-MB-231, 24 h): 6.5 to 10.4 µM | IC50 (A549 [27]): 6.5 to 10.4 µM | IC50 (L02): 6.22 µM | IC50 (HEK-293T): 1.52 µM | IC50 (HeLa [28]): 6.5 to 10.4 µM | IC50 (MCF7 [29]): 6.5 to 10.4 µM

O=c1[nH]cc(F)c(=O)[nH]1 [FLUOROURACIL]
Survival [30]: 49 days | growth inhibition (GI) (HepG2 [31]): 11.55 - 95.52% | growth inhibition (GI) (MCF7 [4]): 11.55 - 95.52%

COc1cc(Cl)ccc1NS(=O)(=O)c1ccc2oc(=O)ccc2c1
IC50 (PANC-1): 4.63 to 7.02 µM | IC50 (A549 [32]): 4.63 to 7.02 µM | IC50 (HepG2 [31]; Homo sapiens, HepG2): 4.63 to 7.02 µM
